# Laboratory results published in patent US10695337B2, “Piperidin-4-yl azetidine derivatives as JAK1 inhibitors” (Incyte Corporation, priority 2010, dated 2020).
# Biological target: human JAK1 (a.a. 837-1142)
# Assay: In vitro JAK kinase assay (HTRF, phosphorylation of a biotinylated peptide), JAK1
# Format: biochemical
# Settings: measured at 1 mM ATP; JAK2 IC50 / JAK1 IC50
# Description: Compounds herein were tested for inhibitory activity of JAK targets according to the following in vitro assay described in Park et al., Analytical Biochemistry 1999, 269, 94-104. The catalytic domains of human JAK1 (a.a. 837-1142), Jak2 (a.a. 828-1132) and Jak3 (a.a. 781-1124) with an N-terminal His tag were expressed using baculovirus in insect cells and purified. The catalytic activity of JAK1, JAK2 or JAK3 was assayed by measuring the phosphorylation of a biotinylated peptide. The phosphorylated peptide was detected by homogenous time resolved fluorescence (HTRF). […] Reactions were carried out at room temperature for 1 hr and then stopped with 20 μL 45 mM EDTA, 300 nM SA-APC, 6 nM Eu-Py20 in assay buffer (Perkin Elmer, Boston, Mass.). Binding to the Europium labeled antibody took place for 40 minutes and HTRF signal was measured on a Fusion plate reader (Perkin Elmer, Boston, Mass.).
row,Structure (SMILES),IC50 Ratio JAK2/JAK1
1,"N#CCC1(n2cc(-c3ncnc4[nH]ccc34)cn2)CN(C2CCN(C(=O)c3cc(F)cc(Br)c3)CC2)C1 [Example 29, {1-[1-(3-bromo-5-fluorobenzoyl)piperidin-4-yl]-3-[4-(7H-pyrrolo[2,3-d]pyrimidin-4-yl)-1H-pyrazol-1-yl]azetidin-3-yl}acetonitrile]",7.2
2,"N#CCC1(n2cc(-c3ncnc4[nH]ccc34)cn2)CN(C2CCN(C(=O)c3cc(Cl)sc3Cl)CC2)C1 [Example 30, {1-{1-[(2,5-dichloro-3-thienyl)carbonyl]piperidin-4-yl}-3-[4-(7H-pyrrolo[2,3-d]pyrimidin-4-yl)-1H-pyrazol-1-yl]azetidin-3-yl}acetonitrile]",2.8
3,"COc1cccc(C(=O)N2CCC(N3CC(CC#N)(n4cc(-c5ncnc6[nH]ccc56)cn4)C3)CC2)c1 [Example 31, {1-[1-(3-methoxybenzoyl)piperidin-4-yl]-3-[4-(7H-pyrrolo[2,3-d]pyrimidin-4-yl)-1H-pyrazol-1-yl]azetidin-3-yl}acetonitrile]",1.9
4,"COc1c(F)c(F)cc(C(=O)N2CCC(N3CC(CC#N)(n4cc(-c5ncnc6[nH]ccc56)cn4)C3)CC2)c1F [Example 32, {3-[4-(7H-pyrrolo[2,3-d]pyrimidin-4-yl)-1H-pyrazol-1-yl]-1-[1-(2,4,5-trifluoro-3-methoxybenzoyl)piperidin-4-yl]azetidin-3-yl}acetonitrile]",4.4
5,"COc1cc(OC)cc(C(=O)N2CCC(N3CC(CC#N)(n4cc(-c5ncnc6[nH]ccc56)cn4)C3)CC2)c1 [Example 33, {1-[1-(3,5-dimethoxybenzoyl)piperidin-4-yl]-3-[4-(7H-pyrrolo[2,3-d]pyrimidin-4-yl)-1H-pyrazol-1-yl]azetidin-3-yl}acetonitrile]",0.5
6,"COc1cc(F)cc(C(=O)N2CCC(N3CC(CC#N)(n4cc(-c5ncnc6[nH]ccc56)cn4)C3)CC2)c1 [Example 36, {1-[1-(3-fluoro-5-methoxybenzoyl)piperidin-4-yl]-3-[4-(7H-pyrrolo[2,3-d]pyrimidin-4-yl)-1H-pyrazol-1-yl]azetidin-3-yl}acetonitrile]",2.3
7,"COc1cc(C(=O)N2CCC(N3CC(CC#N)(n4cc(-c5ncnc6[nH]ccc56)cn4)C3)CC2)cc(Cl)n1 [Example 37, {1-[1-(2-chloro-6-methoxyisonicotinoyl)piperidin-4-yl]-3-[4-(7H-pyrrolo[2,3-d]pyrimidin-4-yl)-1H-pyrazol-1-yl]azetidin-3-yl}acetonitrile]",2.1
8,"COc1ccc(F)cc1C(=O)N1CCC(N2CC(CC#N)(n3cc(-c4ncnc5[nH]ccc45)cn3)C2)CC1 [Example 38, {1-[1-(5-fluoro-2-methoxybenzoyl)piperidin-4-yl]-3-[4-(7H-pyrrolo[2,3-d]pyrimidin-4-yl)-1H-pyrazol-1-yl]azetidin-3-yl}acetonitrile]",5.7
9,"COc1cc(F)ccc1C(=O)N1CCC(N2CC(CC#N)(n3cc(-c4ncnc5[nH]ccc45)cn3)C2)CC1 [Example 40, {1-[1-(4-fluoro-2-methoxybenzoyl)piperidin-4-yl]-3-[4-(7H-pyrrolo[2,3-d]pyrimidin-4-yl)-1H-pyrazol-1-yl]azetidin-3-yl}acetonitrile]",4.8
10,"N#CCC1(n2cc(-c3ncnc4[nH]ccc34)cn2)CN(C2CCN(C(=O)c3cc(F)c(F)cc3F)CC2)C1 [Example 48, {3-[4-(7H-pyrrolo[2,3-d]pyrimidin-4-yl)-1H-pyrazol-1-yl]-1-[1-(2,4,5-trifluorobenzoyl)piperidin-4-yl]azetidin-3-yl}acetonitrile]",6.5
11,"COc1c(Br)cc(C(=O)N2CCC(N3CC(CC#N)(n4cc(-c5ncnc6[nH]ccc56)cn4)C3)CC2)cc1Br [Example 50, {1-[1-(3,5-dibromo-4-methoxybenzoyl)piperidin-4-yl]-3-[4-(7H-pyrrolo[2,3-d]pyrimidin-4-yl)-1H-pyrazol-1-yl]azetidin-3-yl}acetonitrile]",6.9
12,"CN(C)c1ccc(C(=O)N2CCC(N3CC(CC#N)(n4cc(-c5ncnc6[nH]ccc56)cn4)C3)CC2)c(F)c1C#N [Example 51, 3-[(4-{3-(cyanomethyl)-3-[4-(7H-pyrrolo[2,3-d]pyrimidin-4-yl)-1H-pyrazol-1-yl]azetidin-1-yl}piperidin-1yl)carbonyl]-6-(dimethylamino)-2-fluorobenzonitrile]",6.3
13,"N#CCC1(n2cc(-c3ncnc4[nH]ccc34)cn2)CN(C2CCN(C(=O)c3cc(Cl)cc(C(F)(F)F)n3)CC2)C1 [Example 53, {1-(1-{[4-chloro-6-(trifluoromethyl)pyridin-2-yl]carbonyl}piperidin-4-yl)-3-[4-(7H-pyrrolo[2,3-d]pyrimidin-4-yl)-1H-pyrazol-1-yl]azetidin-3-yl}acetonitrile]",9.4
14,"N#CCC1(n2cc(-c3ncnc4[nH]ccc34)cn2)CN(C2CCN(C(=O)c3cc(F)c(F)c(F)c3F)CC2)C1 [Example 54, {3-[4-(7H-pyrrolo[2,3-d]pyrimidin-4-yl)-1H-pyrazol-1-yl]-1-[1-(2,3,4,5-tetrafluorobenzoyl)piperidin-4-yl]azetidin-3-yl}acetonitrile]",9.1

# Further lines, results first:
row,IC50 Ratio JAK2/JAK1,Structure (SMILES)
1,6.0,"N#CCC1(n2cc(-c3ncnc4[nH]ccc34)cn2)CN(C2CCN(C(=O)c3ccc(F)c(Cl)c3)CC2)C1 [Example 34, {1-[1-(3-chloro-4-fluorobenzoyl)piperidin-4-yl]-3-[4-(7H-pyrrolo[2,3-d]pyrimidin-4-yl)-1H-pyrazol-1-yl]azetidin-3-yl}acetonitrile]"
2,6.9,"N#CCC1(n2cc(-c3ncnc4[nH]ccc34)cn2)CN(C2CCN(C(=O)c3ccc(F)c(F)c3)CC2)C1 [Example 35, {1-[1-(3,4-difluorobenzoyl)piperidin-4-yl]-3-[4-(7H-pyrrolo[2,3-d]pyrimidin-4-yl)-1H-pyrazol-1-yl]azetidin-3-yl}acetonitrile]"
3,3.2,"COc1cccc(F)c1C(=O)N1CCC(N2CC(CC#N)(n3cc(-c4ncnc5[nH]ccc45)cn3)C2)CC1 [Example 39, {1-[1-(2-fluoro-6-methoxybenzoyl)piperidin-4-yl]-3-[4-(7H-pyrrolo[2,3-d]pyrimidin-4-yl)-1H-pyrazol-1-yl]azetidin-3-yl}acetonitrile]"
4,4.9,"N#CCC1(n2cc(-c3ncnc4[nH]ccc34)cn2)CN(C2CCN(C(=O)c3cccc(F)c3F)CC2)C1 [Example 41, {1-[1-(2,3-difluorobenzoyl)piperidin-4-yl]-3-[4-(7H-pyrrolo[2,3-d]pyrimidin-4-yl)-1H-pyrazol-1-yl]azetidin-3-yl}acetonitrile]"
5,6.7,"N#CCC1(n2cc(-c3ncnc4[nH]ccc34)cn2)CN(C2CCN(C(=O)c3ccc(F)cc3F)CC2)C1 [Example 42, {1-[1-(2,4-difluorobenzoyl)piperidin-4-yl]-3-[4-(7H-pyrrolo[2,3-d]pyrimidin-4-yl)-1H-pyrazol-1-yl]azetidin-3-yl}acetonitrile]"
6,5.0,"N#CCC1(n2cc(-c3ncnc4[nH]ccc34)cn2)CN(C2CCN(C(=O)c3cc(F)ccc3F)CC2)C1 [Example 43, {1-[1-(2,5-difluorobenzoyl)piperidin-4-yl]-3-[4-(7H-pyrrolo[2,3-d]pyrimidin-4-yl)-1H-pyrazol-1-yl]azetidin-3-yl}acetonitrile]"
7,2.9,"N#CCC1(n2cc(-c3ncnc4[nH]ccc34)cn2)CN(C2CCN(C(=O)c3c(F)cccc3F)CC2)C1 [Example 44, {1-[1-(2,6-difluorobenzoyl)piperidin-4-yl]-3-[4-(7H-pyrrolo[2,3-d]pyrimidin-4-yl)-1H-pyrazol-1-yl]azetidin-3-yl}acetonitrile]"
8,3.1,"N#CCC1(n2cc(-c3ncnc4[nH]ccc34)cn2)CN(C2CCN(C(=O)c3c(F)cccc3C(F)(F)F)CC2)C1 [Example 45, {1-{1-[2-fluoro-6-(trifluoromethyl)benzoyl]piperidin-4-yl}-3-[4-(7H-pyrrolo[2,3-d]pyrimidin-4-yl)-1H-pyrazol-1-yl]azetidin-3-yl}acetonitrile]"
9,6.3,"N#CCC1(n2cc(-c3ncnc4[nH]ccc34)cn2)CN(C2CCN(C(=O)c3ccc(F)c(F)c3F)CC2)C1 [Example 46, {3-[4-(7H-pyrrolo[2,3-d]pyrimidin-4-yl)-1H-pyrazol-1-yl]-1-[1-(2,3,4-trifluorobenzoyl)piperidin-4-yl]azetidin-3-yl}acetonitrile]"
10,3.7,"N#CCC1(n2cc(-c3ncnc4[nH]ccc34)cn2)CN(C2CCN(C(=O)c3c(F)ccc(F)c3F)CC2)C1 [Example 47, {3-[4-(7H-pyrrolo[2,3-d]pyrimidin-4-yl)-1H-pyrazol-1-yl]-1-[1-(2,3,6-trifluorobenzoyl)piperidin-4-yl]azetidin-3-yl}acetonitrile]"
11,6.5,"N#CCC1(n2cc(-c3ncnc4[nH]ccc34)cn2)CN(C2CCN(C(=O)c3c(F)cc(F)cc3F)CC2)C1 [Example 49, {3-[4-(7H-pyrrolo[2,3-d]pyrimidin-4-yl)-1H-pyrazol-1-yl]-1-[1-(2,4,6-trifluorobenzoyl)piperidin-4-yl]azetidin-3-yl}acetonitrile]"
12,4.4,"N#CCC1(n2cc(-c3ncnc4[nH]ccc34)cn2)CN(C2CCN(C(=O)c3ccc(C(F)(F)F)c(F)c3)CC2)C1 [Example 52, {1-{1-[3-fluoro-4-(trifluoromethyl)benzoyl]piperidin-4-yl}-3-[4-(7H-pyrrolo[2,3-d]pyrimidin-4-yl)-1H-pyrazol-1-yl]azetidin-3-yl}acetonitrile]"
